The target of the experiment is T1, human complement factor D (Homo sapiens, UniProt P00746).
T1 construct: purchased R&D Systems 1824-SE
T1 sequence (P00746 26-253): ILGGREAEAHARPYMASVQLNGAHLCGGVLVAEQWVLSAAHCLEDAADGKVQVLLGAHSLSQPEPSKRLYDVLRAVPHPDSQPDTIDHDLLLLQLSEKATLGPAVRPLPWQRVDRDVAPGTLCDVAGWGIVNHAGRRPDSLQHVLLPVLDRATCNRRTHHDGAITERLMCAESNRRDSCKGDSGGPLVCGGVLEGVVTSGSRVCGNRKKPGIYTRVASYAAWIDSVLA
Kind of experiment: In vitro enzyme inhibition (Z-Lys-SBzl/DTNB absorbance assay). The format is biochemical. Particulars: Complement Factor D (R&D Systems), substrate Z-Lys-SBzl, A405 nm; read-out: CFD IC50. A digest of the protocol: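 Factor D (6.25 ng/μL before addition) preincubated 5 min RT with compound (8 points from 50 μM, 6-fold, 0.5% DMSO final) in 50 mM Tris/HCl pH 7.5, 1 M NaCl, then Z-Lys-SBzl/DTNB added (200 μM each before addition). A405 read kinetically every 30 s for 60 min; IC50 from variable-slope fit, controls with and without enzyme.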
As for `NC(=O)c1nn(CC(=O)N2[C@@H]3CC[C@@H](C3)[C@H]2C(=O)Nc2cccc(OC(F)(F)F)c2F)c2cnccc12` [Example 42, 1-(2-((1R,3S,4S)-3-((2-fluoro-3-(trifluoromethoxy)phenyl)carbamoyl)-2-azabicyclo[2.2.1]heptan-2-yl)-2-oxoethyl)-1H-pyrazolo[3,4-c]pyridine-3-carboxamide], the IC50 – broadly, the concentration that inhibits the measured activity by half – fell in the range of 1000 to 10000 nM.

Consider `COC(=O)CC(NC(=O)[C@@H]1[C@H]2CC[C@H](C2)N1C(=O)Cn1nc(C(N)=O)c2ccccc21)c1cccc(Cl)c1F` (stereo partly drawn) [Example 142, methyl 3-((1R,3S,4S)-2-(2-(3-carbamoyl-1H-indazol-1-yl)acetyl)-2-azabicyclo[2.2.1]heptane-3-carboxamido)-3-(3-chloro-2-fluorophenyl)propanoate], for which the IC50 is 1000 to 10000 nM.

Consider `N#Cc1cc(Cl)c(F)c(CNC(=O)[C@@H]2[C@H]3CC[C@H](C3)N2C(=O)Cn2nc(C(N)=O)c3ccccc32)c1` [Example 113, 1-(2-((1R,3S,4S)-3-((3-chloro-5-cyano-2-fluorobenzyl)carbamoyl)-2-azabicyclo[2.2.1]heptan-2-yl)-2-oxoethyl)-1H-indazole-3-carboxamide], for which the IC50 lay within 1000 to 10000 nM.

Take `COc1cc(Cl)nc(NC(=O)[C@@H]2[C@H]3CC[C@H](C3)N2C(=O)Cn2nc(C(N)=O)c3ccccc32)c1` [Example 97, 1-(2-((1R,3S,4S)-3-((6-chloro-4-methoxypyridin-2-yl)carbamoyl)-2-azabicyclo[2.2.1]heptan-2-yl)-2-oxoethyl)-1H-indazole-3-carboxamide]: the IC50 is 100 to 1000 nM.

`NC(=O)c1ccc(Cl)c(F)c1CNC(=O)[C@@H]1[C@H]2CC[C@H](C2)N1C(=O)Cn1nc(C(N)=O)c2ccccc21` [Example 118, 1-(2-((1R,3S,4S)-3-((6-carbamoyl-3-chloro-2-fluorobenzyl)carbamoyl)-2-azabicyclo[2.2.1]heptan-2-yl)-2-oxoethyl)-1H-indazole-3-carboxamide]: the IC50 was 1000 to 10000 nM.

`CCOC(=O)[C@@H]1C[C@@H](C(=O)NCc2cccc(Cl)c2F)N1C(=O)Cn1nc(C(N)=O)c2ccccc21` (relative stereo) [Example 194, trans-ethyl 1-(2-(3-carbamoyl-1H-indazol-1-yl)acetyl)-4-((3-chloro-2-fluorobenzyl)carbamoyl)azetidine-2-carboxylate]: the IC50 was in the range of 100 to 1000 nM.

Turning to `CC(C)(C)OC(=O)N1CCN(C(=O)Cn2nc(C(N)=O)c3ccccc32)[C@H](C(=O)Nc2cccc(Cl)n2)C1` [Example 25, (S)-tert-butyl 4-(2-(3-carbamoyl-1H-indazol-1-yl)acetyl)-3-((6-chloropyridin-2-yl)carbamoyl)piperazine-1-carboxylate], the IC50 was 1000 to 10000 nM.

For the compound `CC(=O)c1nn(CC(=O)N2[C@@H]3CC[C@@H](C3)[C@H]2C(=O)Nc2cccc(Cl)n2)c2ccc(C)cc12` [Example 83, (1R,3S,4S)-2-(2-(3-acetyl-5-methyl-1H-indazol-1-yl)acetyl)-N-(6-chloropyridin-2-yl)-2-azabicyclo[2.2.1]heptane-3-carboxamide], the IC50 was in the range of 100 to 1000 nM.

`NC(=O)c1nn(CC(=O)N2[C@@H]3CC[C@@H](C3)[C@H]2C(=O)Nc2ccnc(Cl)c2)c2ccccc12` [Example 57, 1-(2-((1R,3S,4S)-3-((2-chloropyridin-4-yl)carbamoyl)-2-azabicyclo[2.2.1]heptan-2-yl)-2-oxoethyl)-1H-indazole-3-carboxamide]: the concentration for half-maximal inhibition (IC50) is 1000 to 10000 nM.

Consider `NC(=O)c1nn(CC(=O)N2[C@@H]3CCC(C3)[C@H]2C(=O)Nc2cccc(Cl)n2)c2ccc(Cl)cc12` [Example 12, 5-chloro-1-(2-((1R,3S)-3-((6-chloropyridin-2-yl)carbamoyl)-2-azabicyclo[2.2.1]heptan-2-yl)-2-oxoethyl)-1H-indazole-3-carboxamide], for which the IC50 lay in the range of 1000 to 10000 nM.

As to `NC(=O)n1cc(CC(=O)N2[C@@H]3CC[C@@H](C3)[C@H]2C(=O)NCc2cccc(Cl)c2F)c2ccccc21` [Example 99, 3-(2-((1R,3S,4S)-3-((3-chloro-2-fluorobenzyl)carbamoyl)-2-azabicyclo[2.2.1]heptan-2-yl)-2-oxoethyl)-1H-indole-1-carboxamide], the IC50 lay in the range of 100 to 1000 nM.

For the compound `COC(=O)c1ccc(NC(=O)[C@@H]2[C@H]3CC[C@H](C3)N2C(=O)Cn2nc(C(N)=O)c3ccccc32)nc1Cl` [Example 107, Methyl 6-((1R,3S,4S)-2-(2-(3-carbamoyl-1H-indazol-1-yl)acetyl)-2-azabicyclo[2.2.1]heptane-3-carboxamido)-2-chloronicotinate], the IC50 lay in the range of 1000 to 10000 nM.

For `NC(=O)c1nn(CC(=O)N2CC3CC2(C(=O)Nc2cccc(Cl)n2)C3)c2ccccc12` [Example 151, 2-(2-(3-carbamoyl-1H-indazol-1-yl)acetyl)-N-(6-chloropyridin-2-yl)-2-azabicyclo[2.1.1]hexane-1-carboxamide], the IC50 lay in the range of 1000 to 10000 nM.

`NCC(NC(=O)[C@@H]1[C@H]2CC[C@H](C2)N1C(=O)Cn1nc(C(N)=O)c2ccccc21)c1cccc(Cl)c1F` (stereo partly drawn) [Example 140, 1-(2-((1R,3S,4S)-3-((2-amino-1-(3-chloro-2-fluorophenyl)ethyl)carbamoyl)-2-azabicyclo[2.2.1]heptan-2-yl)-2-oxoethyl)-1H-indazole-3-carboxamide]: the IC50 was > 10000 nM.

In the case of `CC(O)c1nn(CC(=O)N2[C@@H]3CC[C@@H](C3)[C@H]2C(=O)Nc2cccc(Cl)n2)c2ccccc12` (stereo partly drawn) [Example 85, (1R,3S,4S)-N-(6-chloropyridin-2-yl)-2-(2-(3-(1-hydroxyethyl)-1H-indazol-1-yl)acetyl)-2-azabicyclo[2.2.1]heptane-3-carboxamide], the IC50 was > 10000 nM.

Take `NC(=O)c1nn(CC(=O)N2CCOC[C@H]2C(=O)Nc2cccc(Br)n2)c2ccccc12` [Example 24, (S)-N-(6-bromopyridin-2-yl)-4-(2-(3-carbamoyl-1H-indazol-1-yl)acetyl)morpholine-3-carboxamide]: the IC50 fell in the range of 1000 to 10000 nM.

As to `NC(=O)c1nn(CC(=O)N2[C@@H]3CC[C@@H](C3)[C@H]2C(=O)NCc2ccc(Cl)c(Cl)c2)c2ccccc12` [Example 72, 1-(2-((1R,3S,4S)-3-((3,4-dichlorobenzyl)carbamoyl)-2-azabicyclo[2.2.1]heptan-2-yl)-2-oxoethyl)-1H-indazole-3-carboxamide], the IC50 lay within 1000 to 10000 nM.

Regarding `NC(=O)c1nn(CC(=O)N2[C@H](C(=O)Nc3cccc(Cl)n3)C[C@@H]3CCC[C@@H]32)c2cc(F)ccc12` [Example 172, 1-(2-((2S,3aS,6aS)-2-((6-chloropyridin-2-yl)carbamoyl)hexahydrocyclopenta[b]pyrrol-1(2H)-yl)-2-oxoethyl)-6-fluoro-1H-indazole-3-carboxamide 2,2,2-trifluoroacetate], the IC50 is 100 to 1000 nM.

In the case of `NC(=O)c1nn(CC(=O)N2[C@@H](C(=O)Nc3cccc(Cl)n3)C[C@H]3CCC[C@H]32)c2ccccc12` [Example 171, 1-(2-((2R,3aR,6aR)-2-((6-chloropyridin-2-yl)carbamoyl)hexahydrocyclopenta[b]pyrrol-1(2H)-yl)-2-oxoethyl)-1H-indazole-3-carboxamide], the IC50 was > 10000 nM.

With `NC(=O)c1nn(CC(=O)N2[C@@H]3CC[C@@H](C3)[C@H]2C(=O)NCc2cc(CO)cc(Cl)c2F)c2ccccc12` [Example 114, 1-(2-((1R,3S,4S)-3-((3-chloro-2-fluoro-5-(hydroxymethyl)benzyl)carbamoyl)-2-azabicyclo[2.2.1]heptan-2-yl)-2-oxoethyl)-1H-indazole-3-carboxamide], the IC50 lay within 1000 to 10000 nM.

As for `NC(=O)c1nn(CC(=O)N2[C@@H]3CC[C@@H](C3)[C@H]2C(=O)NC(C(=O)O)c2cccc(Cl)c2F)c2ccccc12` (stereo partly drawn) [Example 137, 2-((1R,3S,4S)-2-(2-(3-carbamoyl-1H-indazol-1-yl)acetyl)-2-azabicyclo[2.2.1]heptane-3-carboxamido)-2-(3-chloro-2-fluorophenyl)acetic acid], the IC50 fell in the range of 1000 to 10000 nM.

For `O=C(Nc1cccc(Cl)n1)[C@@H]1[C@H]2CC[C@H](C2)N1C(=O)Cn1nc(C(=O)N2CCC2)c2ccccc21` [Example 86, (1R,3S,4S)-2-(2-(3-(azetidine-1-carbonyl)-1H-indazol-1-yl)acetyl)-N-(6-chloropyridin-2-yl)-2-azabicyclo[2.2.1]heptane-3-carboxamide], the IC50 is > 10000 nM.

Consider `NC(=O)c1nn(CC(=O)N2[C@@H]3CC[C@@H](C3)[C@H]2C(=O)Nc2cccc(Cl)n2)c2ccncc12` [Example 95, 1-(2-((1R,3S,4S)-3-((6-chloropyridin-2-yl)carbamoyl)-2-azabicyclo[2.2.1]heptan-2-yl)-2-oxoethyl)-1H-pyrazolo[4,3-c]pyridine-3-carboxamide], for which the IC50 is 100 to 1000 nM.

For the compound `NC(=O)c1nn(CC(=O)N2[C@@H]3CC[C@@H](C3)[C@H]2C(=O)NCc2cccc(Cl)c2F)c2cc(CC(=O)O)ccc12` [Example 127, 2-(3-carbamoyl-1-(2-((1R,3S,4S)-3-((3-chloro-2-fluorobenzyl)carbamoyl)-2-azabicyclo[2.2.1]heptan-2-yl)-2-oxoethyl)-1H-indazol-6-yl)acetic acid], the IC50 is 1000 to 10000 nM.

For `NC(=O)c1nn(CC(=O)N2[C@H]3CC[C@H]([C@H](O)C3)[C@@H]2C(=O)NCc2cccc(Cl)c2F)c2ccccc12` [Example 153, (1S,3R,4S,5R)-2-(2-(3-carbamoyl-1H-indazol-1-yl)acetyl)-N-(3-chloro-2-fluorobenzyl)-5-hydroxy-2-azabicyclo[2.2.2]octane-3-carboxamide], the IC50 was > 10000 nM.

On to `COC(=O)Cc1ccc2c(C(N)=O)nn(CC(=O)N3[C@@H]4CC[C@@H](C4)[C@H]3C(=O)NCc3cccc(Cl)c3F)c2c1` [Example 126, methyl 2-(3-carbamoyl-1-(2-((1R,3S,4S)-3-((3-chloro-2-fluorobenzyl)carbamoyl)-2-azabicyclo[2.2.1]heptan-2-yl)-2-oxoethyl)-1H-indazol-6-yl)acetate], for which the IC50 fell in the range of 1000 to 10000 nM.

The record behind these values is patent publication US20190127366A1 (LifeSci Pharmaceuticals, Inc., priority 2015, published 2019).
